Assay results: PubChem BioAssay AID1963973 (Molecular Pharmacology Branch, DTP, NCI, 2024)
pIC50: −log10 of the molar value. Values belong to the molecule of their own block, whether it stands above or below them.

Test system: 883617-216-R-J1-PDC tumor spheroids, viability
Assay: Anticancer human tumor 883617-216-R-J1-PDC patient-derived bladder carcinoma cell line growth inhibition [PI3K]
Details: spheroids with HUVEC and MSC; for pIC50: curve of first compound; for viability, T/C: stronger effect = lower value
Excerpt: Combinatorial screen of targeted agents with the PI3K inhibitors inavolisib, alpelisib, duvelisib, and copanlisib in multi-cell type tumor spheroids
A high-throughput screen of multi-cell type tumor spheroids was designed to identify active combinations of targeted small molecules and PI3K pathway inhibitors. Complex spheroids include a stromal component modeled by human endothelial cells (HUVEC) and fibroblasts modeled by human mesenchymal stem cells (MSCs). The concentration ranges selected for each drug and investigational agent were based upon clinically achievable concentrations if the clinical Cmax of the agent was known.
Compounds. The drugs and investigational agents: inavolisib (NSC800729), alpelisib (NSC765974), duvelisib (NSC772469), copanlisib (NSC816437), ipatasertib (NSC767898), afuresertib (NSC778305), talazoparib (NSC767125), sapanisertib (NSC764658), selumetinib (NSC741078), tovorafenib (DAY101, NSC766906), vemurafenib (NSC761431), ravoxertinib (NSC781343), sotorasib (NSC818433), MRTX1133 (NSC 836407), abemaciclib (NSC 768073), palbociclib (NSC758247), venetoclax (NSC 766270), SY5609 (NSC837396), enzalutamide (NSC755605), and darolutamide (NSC825331), were obtained from the National Cancer Institute (NCI) Developmental Therapeutics Program Chemical Repository. The FDA-approved anticancer drug set is available from the NCI Developmental Therapeutics Program. […] The stock solutions were prepared in dimethyl sulfoxide (DMSO, Sigma-Aldrich, St. Louis, MO, cat. D2650) at 800-fold the tested concentration and stored at -70 degrees C prior to their use. All drugs and investigational agents were tested over a range starting from a high concentration at or near the clinical Cmax and decreasing in half-log increments. If the clinical Cmax for an agent had not been determined, the highest concentration tested was 10 microM.
Cell Culture. All cells were maintained in an incubator at 37 degrees C and 5% CO2 with 95% humidity. The PDC lines were cultured according to standard operating procedures established by the NCI PDMR (https://pdmr.cancer.gov/sops/default.htm). All PDCs were thawed and cultured in Matrigel-coated flasks prepared with a working solution of 1X Ham's F-12 nutrient mix, without supplementation (Invitrogen, Waltham, MA, cat. 11765054), 100 U/mL penicillin-streptomycin (Invitrogen, cat. 15140122), and 2.5% Matrigel (Corning Inc., Corning, NY, cat. 354248) for the first three passages. The 354836-022-R-J1-PDC, 475296-252-R-J1-PDC, and 997726-040-R-J2-PDC lines were cultured in 6A media, which includes advanced DMEM/F-12 (Thermo Fisher Scientific, cat. 12634028), 10 mM HEPES (Thermo Fisher Scientific, cat. 15630080), 1X GlutaMAX supplement (Thermo Fisher Scientific, cat. 35050061), 0.1 mg/mL primocin (InvivoGen, San Diego, CA, cat. ant-pm-2), 10% defined fetal bovine serum, heat inactivated (HyClone Laboratories Inc., Logan, UT, cat. SH30070.03HI), 50% L-WRN conditioned media (ATCC, cat. CRL-3276), 1.25 mM N-Acetyl-L-cysteine (Sigma-Aldrich, cat. A9165), 10 mM nicotinamide (Sigma-Aldrich, cat. N0636), 1X B-27 supplement (Thermo Fisher Scientific, cat. 17504044), 1X N-2 supplement (Thermo Fisher Scientific, cat. 17502048), and 10 microM Y-27632 dihydrochloride (Tocris Bioscience, Bristol, United Kingdom, cat. 1254). The 624824-186-R-J2-PDC line was cultured in 6C/Colon 1B media, which includes all 6A media components plus 50 ng/mL human EGF recombinant protein (Thermo Fisher Scientific, cat. PHG0311). […]

[1] = second compound 0.0316 µM, first compound 0.0316 µM
[2] = second compound 0.0316 µM, first compound 0.1 µM
[3] = second compound 0.0316 µM, first compound 0.316 µM
[4] = second compound 0.0316 µM, first compound 1 µM
[5] = second compound 0.0316 µM, first compound 3.16 µM
[6] = second compound 0.0316 µM, first compound 10 µM
[7] = second compound 0.1 µM, first compound 0.0316 µM
[8] = second compound 0.1 µM, first compound 0.1 µM
[9] = second compound 0.1 µM, first compound 0.316 µM
[10] = second compound 0.1 µM, first compound 1 µM
[11] = second compound 0.1 µM, first compound 3.16 µM
[12] = second compound 0.1 µM, first compound 10 µM
[13] = second compound 0.316 µM, first compound 0.0316 µM
[14] = second compound 0.316 µM, first compound 0.1 µM
[15] = second compound 0.316 µM, first compound 0.316 µM
[16] = second compound 0.316 µM, first compound 1 µM
[17] = second compound 0.316 µM, first compound 3.16 µM
[18] = second compound 0.316 µM, first compound 10 µM
[19] = second compound 1 µM, first compound 0.0316 µM
[20] = second compound 1 µM, first compound 0.1 µM
[21] = second compound 1 µM, first compound 0.316 µM
[22] = second compound 1 µM, first compound 1 µM
[23] = second compound 1 µM, first compound 3.16 µM
[24] = second compound 1 µM, first compound 10 µM
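Further: spheroids exposed to agents for 7 days before the viability read.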

pIC50 (second compound 0.0316 µM): 6.39
pIC50 (second compound 0.1 µM): 6.67
pIC50 (second compound 0.316 µM): > 7.50
pIC50 (second compound 1 µM): > 7.50
pIC50 (second compound 3.16 µM): > 7.50
pIC50 (second compound 10 µM): > 7.50
Compound: CC(C)NCC(C(=O)N1CCN(c2ncnc3c2C(C)CC3O)CC1)c1ccc(Cl)cc1 (stereo unspecified) + Cc1nc(NC(=O)N2CCCC2C(N)=O)sc1-c1ccnc(C(C)(C)C(F)(F)F)c1
viability, T/C [1]: 77%
viability, T/C [2]: 67.7%
viability, T/C [3]: 57.6%
viability, T/C [4]: 27.9%
viability, T/C [5]: 13.8%
viability, T/C [6]: 8.01%
viability, T/C [7]: 72.8%
viability, T/C [8]: 60.1%
viability, T/C [9]: 45.5%
viability, T/C [10]: 26.7%
viability, T/C [11]: 16.2%
viability, T/C [12]: 6.45%
viability, T/C [13]: 37.7%
viability, T/C [14]: 41%
viability, T/C [15]: 36.6%
viability, T/C [16]: 22.6%
viability, T/C [17]: 10.9%
viability, T/C [18]: 4.92%
viability, T/C [19]: 30.4%
viability, T/C [20]: 29.9%
viability, T/C [21]: 24.4%
viability, T/C [22]: 15.2%
viability, T/C [23]: 8.01%
viability, T/C [24]: 4.96%
viability, T/C (second compound 3.16 µM, first compound 0.0316 µM): 17.9%
viability, T/C (second compound 3.16 µM, first compound 0.1 µM): 10.5%
viability, T/C (second compound 3.16 µM, first compound 0.316 µM): 10.3%
viability, T/C (second compound 3.16 µM, first compound 1 µM): 9.2%
viability, T/C (second compound 3.16 µM, first compound 3.16 µM): 8.98%
viability, T/C (second compound 3.16 µM, first compound 10 µM): 3.73%
viability, T/C (second compound 10 µM, first compound 0.0316 µM): 7.03%
viability, T/C (second compound 10 µM, first compound 0.1 µM): 5.88%
viability, T/C (second compound 10 µM, first compound 0.316 µM): 5.22%
viability, T/C (second compound 10 µM, first compound 1 µM): 5.21%
viability, T/C (second compound 10 µM, first compound 3.16 µM): 3.1%
viability, T/C (second compound 10 µM, first compound 10 µM): 2.33%

pIC50 (second compound 0.00316 µM): < 5.00
pIC50 (second compound 0.01 µM): < 5.00
pIC50 (second compound 0.0316 µM): > 7.50
pIC50 (second compound 0.1 µM): > 7.50
pIC50 (second compound 0.316 µM): > 7.50
pIC50 (second compound 1 µM): > 7.50
Compound: C[C@@H](NC(=O)c1ncnc(N)c1Cl)c1ncc(C(=O)Nc2cc(C(F)(F)F)c(Cl)cn2)s1 + COc1c(OCCCN2CCOCC2)ccc2c3n(c(=NC(=O)c4cnc(N)nc4)nc12)CCN3
viability, T/C (second compound 0.00316 µM, first compound 0.0316 µM): 86.2%
viability, T/C (second compound 0.00316 µM, first compound 0.1 µM): 83.1%
viability, T/C (second compound 0.00316 µM, first compound 0.316 µM): 86.1%
viability, T/C (second compound 0.00316 µM, first compound 1 µM): 96%
viability, T/C (second compound 0.00316 µM, first compound 3.16 µM): 70.9%
viability, T/C (second compound 0.00316 µM, first compound 10 µM): 59.9%
viability, T/C (second compound 0.01 µM, first compound 0.0316 µM): 88.2%
viability, T/C (second compound 0.01 µM, first compound 0.1 µM): 71.5%
viability, T/C (second compound 0.01 µM, first compound 0.316 µM): 72.5%
viability, T/C (second compound 0.01 µM, first compound 1 µM): 87.5%
viability, T/C (second compound 0.01 µM, first compound 3.16 µM): 71.5%
viability, T/C (second compound 0.01 µM, first compound 10 µM): 56.6%
viability, T/C [1]: 38.3%
viability, T/C [2]: 41.2%
viability, T/C [3]: 42.1%
viability, T/C [4]: 50.4%
viability, T/C [5]: 40.8%
viability, T/C [6]: 30.9%
viability, T/C [7]: 19%
viability, T/C [8]: 20.6%
viability, T/C [9]: 23.1%
viability, T/C [10]: 22%
viability, T/C [11]: 20.5%
viability, T/C [12]: 14.5%
viability, T/C [13]: 7.26%
viability, T/C [14]: 7.17%
viability, T/C [15]: 7.53%
viability, T/C [16]: 7.56%
viability, T/C [17]: 9.7%
viability, T/C [18]: 5.01%
viability, T/C [19]: 5.51%
viability, T/C [20]: 5.13%
viability, T/C [21]: 5.48%
viability, T/C [22]: 5.61%
viability, T/C [23]: 5.29%
viability, T/C [24]: 2.13%

IC50 (curve of compound): 52.5 nM [middle of 4 runs]
Compound: Cn1cnc2c(F)c(Nc3ccc(Br)cc3Cl)c(C(=O)NOCCO)cc21
viability, T/C (compound 0.00949 µM): 73.6% [middle of 4 runs]
viability, T/C (compound 0.03 µM): 54.3% [middle of 4 runs]
viability, T/C (compound 0.0949 µM): 43.7% [middle of 4 runs]
viability, T/C (compound 0.3 µM): 32.2% [middle of 4 runs]
viability, T/C (compound 0.949 µM): 34.6% [middle of 4 runs]
viability, T/C (compound 3 µM): 20.2% [middle of 4 runs]
